# System: HADHA Mut CMs
# Assay: Seahorse MitoStress assay, proton leak in fatty acid challenged HADHA Mut CMs
# Assay type: cell-based, human
# Conditions: 1 nM, 12D Glc+FA media, vs non-treated Mut CMs
# Description: To better understand the pathological state of HADHA Mut and KO CMs exposed to chronic FAs, their mitochondria were functionally assessed. […] Because exposure to FAs led to a reduction in mitochondrial membrane potential and reduced ATP production, it was postulated that this may be due in part to an increased proton leak.
# The Seahorse XF96 extracellular flux analyzer was used to assess mitochondrial function as previously described [Kuppusamy, K. T., et al., Let-7 family of microRNA is required for maturation and adult-like metabolism in stem cell-derived cardiomyocytes. Proc Natl Acad Sci U.S.A., 2015]. The plates were pre-treated with 1:60 diluted Matrigel reduced growth factor (Corning). […] The OCR values were further normalized to the number of cells present in each well, quantified by the Hoechst staining (Hoechst 33342; Sigma-Aldrich) as measured using fluorescence at 355 nm excitation and 460 nm emission. […] ATP production was calculated as the difference between the basal respiration and respiration after oligomycin. Proton leak was calculated as the difference between respiration after oligomycin and after antimycin & rotenone. Cellular capacity to utilize palmitate as an energy source was calculated as the difference between the average OCR after second palmitate addition and the final respiration value before the second addition of palmitate. […]
substance,measurement,setting,value
elamipretide [SS-31],proton leak (OCR after oligomycin minus OCR after antimycin & rotenone),,significantly lower
same,proton leak (OCR after oligomycin minus OCR after antimycin & rotenone),listed as elamipretide (SS-31),rescued the increased proton leak

# Source: US20200392497A1, “METHODS AND COMPOSITIONS FOR DETECTING AND PROMOTING CARDIOLIPIN REMODELING AND CARDIOMYOCYTE MATURATION AND RELATED METHODS OF TREATING MITOCHONDRIAL DYSFUNCTION” (University of Washington, priority 2017, published 2020)
